Experimental data from article PMC11359702, “Synthesis and Biochemical Evaluation of Ethanoanthracenes and Related Compounds: Antiproliferative and Pro-Apoptotic Effects in Chronic Lymphocytic Leukemia (CLL)” (Pharmaceuticals, 2024).
Several values for one entry are separate records, joined by “and”; a condition that tells them apart may be missing. Equal values may be shown once. Read-outs that look alike come from different tables or passages of the source.

Assays:
[1] = HPLC stability study in phosphate buffers; assay type: physicochemical; settings: for Half-life pH 4 / % remaining 24 h pH 4: pH 4 buffer; for Half-life pH 4 / % remaining 24 h pH 4 / Half-life pH 7.4 / % remaining 24 h pH 7.4 / Half-life pH 9 / % remaining 24 h pH 9: 37 °C; for % remaining 24 h pH 4 / % remaining 24 h pH 7.4 / % remaining 24 h pH 9: HPLC; for Half-life pH 7.4 / % remaining 24 h pH 7.4: pH 7.4 buffer; for Half-life pH 9 / % remaining 24 h pH 9: pH 9 buffer
Procedure: A preliminary stability study was carried out on selected chalcones, maleic anhydride and maleimide adducts at acidic, neutral and basic conditions (pH 4, 7.4 and 9) using HPLC to determine suitability for further preclinical investigations. […] A possible degradation route for the maleimide 23n could be through the hydrolysis of the cyclic imide of the maleimide ring, leading to the resultant amic acid product.
All samples were analyzed using acetonitrile–water (80:20%, 70:30%, 60:40% isocratic) as the mobile phase over 10 min and a flow rate of 1 mL/min. Stock solutions were prepared by dissolving 5 mg of compounds in a mobile phase ([(acetonitrile (80%): water (20%)], 10 mL). Anhydride 22h was not detected at its retention time of 5.2 min at pH 9.0. The data presented represent the results of single experiments.
The HPLC stability studies for compounds 21a, 21i, 22h, 23a, 23g, 23n, 24a, 24h, 26a and 26n were performed using a Symmetry® column (C18, 5 µm, 4.6 × 150 mm), a Waters 2487 Dual Wavelength Absorbance detector, and an HPLC pump: Waters 1525 binary and Autosampler; Waters 717 plus (Waters Corporation, Milford, MA, USA), mobile phase [(acetonitrile (80%) and water (20%)] with a typical run time of 10 min and a flow rate of 1 mL/min with detection at 254 nm. The selected compounds 21a, 21i, 22h, 23a, 23g, 23n, 24a, 24h, 26a and 26n (5 mg) in the mobile phase (10 mL) provided the stock solution for the analysis. The phosphate buffers were prepared at pH values of 4, 7.4 and 9, as described in the British Pharmacopoeia monograph 2019. The stock solution (30 µL) was added to the appropriate buffer (1 mL) and retained at 37 °C. Samples were then analyzed over the following 24-h period at selected time intervals (t = 0 min, 5 min, 30 min, 60 min, 90 min, 120 min and 24 h).

HG-3 cells [2] = tested on: HG-3 cells
PGA-1 cells [3] = settings: 10 µM
HG-3 cells [4] = assay: alamarBlue cell viability assay; settings: for IC50: read-out: HG-3 IC50, HG-3, 24 h
PGA-1 cells [5] = assay: alamarBlue cell viability assay; settings: for IC50: read-out: PGA-1 IC50
CCRF-CEM = assay: NCI-60 five-dose assay; assay type: cell-based, human
HL-60(TB) = assay: NCI-60 five-dose assay; assay type: cell-based, human
K-562 = assay: NCI-60 five-dose assay; assay type: cell-based, human
MOLT-4 = assay: NCI-60 five-dose assay; assay type: cell-based, human
RPMI-8226 = assay: NCI-60 five-dose assay; assay type: cell-based, human
SR = assay: NCI-60 five-dose assay; assay type: cell-based, human
[6] = tested on: NCI 60 cancer cell line panel; assay: NCI-60 five-dose assay, full-panel means; assay type: cell-based; settings: for GI50: read-out: Mean GI50 (MID GI50, full-panel mean-graph mid-point)
Procedure: A number of our most promising compounds identified through preliminary cell viability testing (23c, 23d, 23f, 23h, 23l, 23m, 23n, 23o, 24f, 24l, 25n and 26n) were selected for NCI drug screening in the 60-cell-line panel. The panel includes nine subcategories based on cancer tissue types, which include leukemia, ovarian, central nervous system, breast, lung, prostate, skin, renal and colon cancer. The compounds were initially assessed in a one-dose assay at a fixed treatment concentration of 10 µM. The compounds selected for further investigation were progressed to a five-dose assay across the concentration ranges of 0.01, 0.1, 1, 10 and 100 µM [72]. The endpoints assessed in the screening protocol were GI50, TGI and LC50 [72].

leukemia cell panel = assay: NCI-60 five-dose assay, leukemia cell panel mean; assay type: cell-based, human; settings: mean across the six leukemia cell lines
[7] = tested on: HG-3 and PGA-1 cell lines; assay: alamarBlue cell viability assay, mean of both CLL cell lines; assay type: cell-based, human; settings: mean of HG-3 and PGA-1
[8] = mean over NCI 60 cell line panel

## O=C(/C=C/C12c3ccccc3C(c3ccccc31)C1C(=O)N(c3ccc(C(=O)c4ccccc4)cc3)C(=O)C12)c1ccc(Br)cc1 (stereo not shown) [Compound 26a, (E)-13-(4-Benzoylphenyl)-9-(3-(4-bromophenyl)-3-oxoprop-1-en-1-yl)-9,10-dihydro-9,10-[3,4]epipyrroloanthracene-12,14-dione]
[1]
  Half-life pH 4: > 24 h
  % remaining 24 h pH 4: 64% and 63.95%
  Half-life pH 7.4: > 24 h
  % remaining 24 h pH 7.4: 61% and 61.03%
  Half-life pH 9: > 24 h
  % remaining 24 h pH 9: 66%
HG-3 cells [2]; 1 µM
  cell viability: 55%
HG-3 cells [2]; 10 µM
  cell viability: 31%
PGA-1 cells [3]
  cell viability: 29%
HG-3 cells [4]; HG-3, 1 µM
  decrease in cell viability compared to 26f: 64%
HG-3 cells [4]; HG-3, 10 µM
  decrease in cell viability compared to 26f: 29%
PGA-1 cells [5]; PGA-1, 1 µM
  decrease in cell viability compared to 26f: 70%
PGA-1 cells [5]; PGA-1, 10 µM
  decrease in cell viability compared to 26f: 20%

## O=C(/C=C/C12c3ccccc3C(c3ccccc31)C1C(=O)NC(=O)C12)c1ccc(Cl)cc1Cl (stereo not shown) [Compound 23d]
CCRF-CEM
  GI50: 1240 nM
HL-60(TB); HL-60(TB)
  GI50: 1580 nM
K-562; K-562
  GI50: 2190 nM
MOLT-4; MOLT-4
  GI50: 2160 nM
RPMI-8226; RPMI-8226
  GI50: 1100 nM
SR
  GI50: 1250 nM
[6]
  CC50: 29500 nM
[6]; [8]
  Mean TGI (MID TGI, total growth inhibition): 7580 nM
  GI50: 2510 nM
Leukemia cell panel
  GI50: 1590 nM

## O=C(/C=C/C12c3ccccc3C(c3ccccc31)C1C(=O)NC(=O)C12)c1ccco1 (stereo not shown) [Compound 23o]
CCRF-CEM
  GI50: 1890 nM
HL-60(TB); HL-60(TB)
  GI50: 320 nM
K-562; K-562
  GI50: 2570 nM
MOLT-4; MOLT-4
  GI50: 1770 nM
RPMI-8226; RPMI-8226
  GI50: 1680 nM
[6]
  CC50: 11000 nM
[6]; [8]
  Mean TGI (MID TGI, total growth inhibition): 3890 nM
  GI50: 1780 nM
Leukemia cell panel
  GI50: 1640 nM

## O=C(/C=C/C12c3ccccc3C(c3ccccc31)C1C(=O)NC(=O)C12)c1ccc2ccccc2c1 (stereo not shown) [Compound 23p]
[7]
  IC50: 1360 nM
HG-3 cells [2]; 1 µM
  cell viability: 46%
HG-3 cells [2]; 10 µM
  cell viability: 0%
PGA-1 cells [3]
  cell viability: 0%
HG-3 cells [4]
  IC50: 1410 nM
PGA-1 cells [5]; PGA-1, 24 h
  IC50: 1300 nM

## O=C(C=CC12c3ccccc3C(c3ccccc31)C1C(=O)N(c3ccc(Cl)cc3)C(=O)C12)c1ccc(Cl)cc1 (stereo not shown) [Compound 25l, (E)-13-(4-Chlorophenyl)-9-(3-(4-chlorophenyl)-3-oxoprop-1-en-1-yl)-9,10-dihydro-9,10-[3,4]epipyrroloanthracene-12,14-dione]
PGA-1 cells [3]
  cell viability: 24%

## O=C(C=CC12c3ccccc3C(c3ccccc31)C1C(=O)N(c3ccccc3)C(=O)C12)c1ccc([N+](=O)[O-])cc1 (stereo not shown) [Compound 24b, 9-(E)-3-(4-Nitrophenyl)-3-oxoprop-1-en-1-yl)-13-phenyl-9,10-dihydro-9,10-[3,4]epipyrroloanthracene-12,14-dione]
HG-3 cells [2]; 10 µM
  cell viability: 10%
PGA-1 cells [3]
  cell viability: 22%

## O=C(/C=C/C12c3ccccc3C(c3ccccc31)C1C(=O)N(c3ccc(C(=O)c4ccccc4)cc3)C(=O)C12)c1ccncc1 (stereo not shown) [Compound 26m, (E)-13-(4-Benzoylphenyl)-9-(3-oxo-3-(pyridin-4-yl)prop-1-en-1-yl)-9,10-dihydro-9,10-[3,4]epipyrroloanthracene-12,14-dione]
HG-3 cells [2]; 10 µM
  cell viability: 27%
PGA-1 cells [3]
  cell viability: 17%
HG-3 cells [4]; HG-3, 1 µM
  decrease in cell viability compared to 26f: 64%
HG-3 cells [4]; HG-3, 10 µM
  decrease in cell viability compared to 26f: 59%
PGA-1 cells [5]; PGA-1, 1 µM
  decrease in cell viability compared to 26f: 64%

## O=C(C=CC12c3ccccc3C(c3ccccc31)C1C(=O)N(c3ccccc3)C(=O)C12)c1ccco1 (stereo not shown) [Compound 24o, 9-(E)-3-(Furan-2-yl)-3-oxoprop-1-en-1-yl)-13-phenyl-9,10-dihydro-9,10-[3,4]epipyrroloanthracene-12,14-dione]
HG-3 cells [2]; 10 µM
  cell viability: 3%
PGA-1 cells [3]
  cell viability: 9%

## O=C(c1ccccc1)c1ccc(N2C(=O)C3C4c5ccccc5C(C=CC(=O)c5ccco5)(c5ccccc54)C3C2=O)cc1 (stereo not shown) [Compound 26o, (E)-13-(4-Benzoylphenyl)-9-(3-(furan-2-yl)-3-oxoprop-1-en-1-yl)-9,10-dihydro-9,10-[3,4]epipyrroloanthracene-12,14-dione]
HG-3 cells [2]; 10 µM
  cell viability: 15%
PGA-1 cells [3]
  cell viability: 9%

## O=C(/C=C/C12c3ccccc3C(c3ccccc31)C1C(=O)NC(=O)C12)c1ccccc1 (stereo not shown) [Compound 23f, (E)-9-(3-oxo-3-phenylprop-1-en-yl)-9,10-dihydro-9,10-[3,4]epipyrroloanthracene-12,14-dione]
CCRF-CEM; Homo sapiens
  GI50: 2160 nM
HL-60(TB); Homo sapiens, HL-60, HL-60(TB)
  GI50: 1500 nM
K-562; Homo sapiens, K562, K-562
  GI50: 1940 nM
MOLT-4; Homo sapiens, MOLT-4, MOLT-4
  GI50: 2170 nM
RPMI-8226; Homo sapiens, RPMI-8226, RPMI-8226
  GI50: 1520 nM
SR; Homo sapiens
  GI50: 1570 nM
[6]; Homo sapiens, mean over NCI 60 cell line panel
  GI50: 1820 nM
[6]; Homo sapiens, mean over NCI 60 cell line panel, read-out: Mean LC50 (MID LC50)
  CC50: 14800 nM
[6]; [8]
  Mean TGI (MID TGI, total growth inhibition): 4570 nM
Leukemia cell panel; Homo sapiens
  GI50: 1810 nM
[7]; Homo sapiens, CLL cell
  IC50: 7430 nM
HG-3 cells [4]; HG-3, 10 µM, 24 h, vehicle = 100%, 10 µM
  cell viability: 2%
HG-3 cells [4]; Homo sapiens
  IC50: 3550 nM
PGA-1 cells [5]; Homo sapiens, 24 h
  IC50: 11300 nM
PGA-1 cells [5]; Homo sapiens, 24 h, read-out: cell viability
  viability at 10 µM: 13.9%

## (E)-13-(4-Chlorophenyl)-9-(3-(4-nitrophenyl)-3-oxoprop-1-en-1-yl)-9,10-dihydro-9,10-[3,4]epipyrroloanthracene-12,14-dione [Compound 25b]
HG-3 cells [2]; 10 µM
  cell viability: 35%
PGA-1 cells [3]
  cell viability: 34%

## O=C(C=CC12c3ccccc3C(c3ccccc31)C1C(=O)N(c3ccc(Cl)cc3)C(=O)C12)c1ccc(I)cc1 (stereo not shown) [Compound 25g, (E)-13-(4-Chlorophenyl)-9-(3-(4-iodophenyl)-3-oxoprop-1-en-1-yl)-9,10-dihydro-9,10-[3,4]epipyrroloanthracene-12,14-dione]
PGA-1 cells [3]
  cell viability: 33%

## O=C(/C=C/C12c3ccccc3C(c3ccccc31)C1C(=O)NC(=O)C12)c1ccncc1 (stereo not shown) [Compound 23m]
CCRF-CEM
  GI50: 2390 nM
HL-60(TB); HL-60(TB)
  GI50: 1760 nM
K-562; K-562
  GI50: 1880 nM
MOLT-4; MOLT-4
  GI50: 2570 nM
RPMI-8226; RPMI-8226
  GI50: 2110 nM
SR
  GI50: 1760 nM
[6]
  CC50: 28200 nM
[6]; [8]
  Mean TGI (MID TGI, total growth inhibition): 7760 nM
  GI50: 2510 nM
Leukemia cell panel
  GI50: 2080 nM

## O=C(C=CC12c3ccccc3C(c3ccccc31)C1C(=O)N(c3ccc(Cl)cc3)C(=O)C12)c1ccco1 (stereo not shown) [Compound 25o, (E)-13-(4-Chlorophenyl)-9-(3-(furan-2-yl)-3-oxoprop-1-en-1-yl)-9,10-dihydro-9,10-[3,4]epipyrroloanthracene-12,14-dione]
HG-3 cells [2]; 10 µM
  cell viability: 5%
PGA-1 cells [3]
  cell viability: 14%

## O=C(/C=C/C12c3ccccc3C(c3ccccc31)C1C(=O)NC(=O)C12)c1ccc(I)cc1 (stereo not shown) [Compound 23g]
[7]
  IC50: 3620 nM
[1]; over the pH range studied (pH 4, 7.4 and 9)
  recovery at 24 h: < 50%
[1]
  Half-life pH 4: 11.3 h
  % remaining 24 h pH 4: 7.98%
  Half-life pH 7.4: 8.9 h
  % remaining 24 h pH 7.4: 11.02%
  Half-life pH 9: 5.5 h
  % remaining 24 h pH 9: 10.50%
HG-3 cells [2]; 10 µM
  cell viability: 0%
PGA-1 cells [3]
  cell viability: 2%
HG-3 cells [4]
  IC50: 4470 nM
PGA-1 cells [5]; PGA-1, 24 h
  IC50: 2770 nM

## (E)-13-(4-Chlorophenyl)-9-(3-oxo-3-(pyridin-4-yl)prop-1-en-1-yl)-9,10-dihydro-9,10-[3,4]epipyrroloanthracene-12,14-dione [Compound 25m]
HG-3 cells [2]; 10 µM
  cell viability: 8%
PGA-1 cells [3]
  cell viability: 28%
